System: CO2-sensitive ab1C neurons
Test: single-sensillum electrophysiology, inhibition of CO2 response of ab1C neurons
Assay type: cell-based, Drosophila
Conditions: for inhibition of CO2 response of ab1C neurons: 0.3% CO2 with varying concentrations of odourant, applied prior to or after CO2 stimulus; for silencing of CO2 neuron beyond the period of application: 2,3-butanedione at concentrations >=10^-1, 1-hexanol at the concentrations tested; for inhibition of CO2 response across tested CO2 concentrations: CO2 0.1% up to ~3%
Text: Representative traces (top) and mean responses (bottom) from single-sensillum electrophysiology of ab1 sensilla in mutant flies; spikes represent activity of the ab1C neuron. a, 3-sec stimulus of odourant overlaid with a 1-sec application of 0.3% CO2. b, 3-sec stimulus of 0.3% CO2 overlaid with a 1-sec application of odourant. PO=paraffin oil, d4on=2,3-butanedione, 6ol=1-hexanol. n=6, error bars=s.e.m. Spikes per second were counted during the 1-sec stimulus period, and spontaneous activity subtracted. (For data in a and b, T-test, *P<0.001, **P<0.005, ***P<0.01, ****P<0.05) c, ab1C responses to indicated concentrations of CO2 in the presence of solvent (PO), 1-hexanol (6ol) or 2,3-butanedione (d4on). Odourants were tested at 10^−1 dilution. Firing rates were counted in consecutive 0.1-sec bins. n=3, error bars=s.e.m.
Bars indicate stimulus periods for 0.3% CO2, and overlays with 1-hexanol (6ol) or 2,3-butanedione (d4on) at the indicated concentrations. b, Recovery of ab1C responsiveness to a 0.5-sec, 0.3% CO2 stimulus applied every 30-sec after initial treatment with 3-sec stimulus of either d4on (10^−1) or paraffin oil (PO). n=5, error bars=s.e.m., (T-test, *P<0.005, **<0.01, ***P<0.05). c, CO2 response inhibition by structurally related compounds. A 3-sec stimulus of 0.3% CO2 was delivered in combination with 1-sec application of indicated odourant (10^−2) as in a. Percent increase or decrease in mean ab1C response was calculated relative to mean response of paraffin oil. n=5. d, Structures of CO2 and the 4 strongest antagonists. e-f, show mean odourant responses. e, Odourants were tested on ab1C neurons in Or83b2 flies at 10^−2 dilution in paraffin oil. Bars represent values after subtraction of mean response to paraffin oil. n=3. f, Odourants at indicated concentrations were tested on ab3A neuron in wild-type (wt) and ΔHalo (AH) mutants that lack Or22a and Or22b. Bars represent values after subtraction of spontaneous activity. n=5, error bars=s.e.m.
FIG. 16 is a schematic diagram of an odour-delivery system to maintain steady concentration of CO2 in binary mixture experiments. Cartridges were made from Pasteur pipettes with pre-filled cotton wool inserts. […] odorant dissolved in paraffin oil (at specific concentrations) was applied to the cotton wool, and a 1.5 ml disposable tip attached to the open end to make the “odour cartridge”. A controlled “humidified air flow” was generated from a compressed air cylinder by bubbling through water, and passed through a glass tube, and released over the recording arena holding the Drosophila. A C-55 stimulus controller (Syntech) was used to generate an additional activated-charcoal filtered continuous air flow of 5 ml/sec which was delivered into the humidified airstream through a “blank cartridge” with the tip placed through a hole in the tube. To generate controlled odourant stimulus the C-55 stimulus controller was used to switch air flow from the “continuous air flow” to “odor stimulus flow” channel. An additional CO2 stimulus was pulsed through a separate system that delivered controlled pulses (variable 2.5 ml/sec-6.5 ml/sec) into the same humidified airstream, from either a 1%, 5% or 100% cylinder of CO2 (Airgas).
Extracellular single-unit recordings were performed. Odourant stimuli were delivered via Pasteur pipette odour cartridges (see, FIG. 16). Chemicals were of the highest purity available, typically>99% (Sigma-Aldrich). All odourants were diluted in paraffin oil. A controlled volume of air 5 ml/sec was puffed through the odour cartridge containing vapours, and was delivered into a constant humidified airstream of 10 ml/sec that was passed over the fly antenna. […] CO2 stimulus was pulsed through a separate delivery system that delivered controlled pulses (variable 2.5 ml/sec-6.5 ml/sec) into the same humidified airstream, from either a 1%, 5% or 100% tank of CO2 (Airgas). […]

CC(=O)C(C)=O [2,3-butanedione]
effect of order of presentation on strength of CO2 response inhibition (0.3% CO2): of lesser consequence
inhibition of CO2 response of ab1C neurons: inhibited CO2 response in a dose-dependent manner
silencing of CO2 neuron beyond the period of application: silenced the CO2 neuron well beyond the period of application
CO2 response at 10 minutes versus neurons not pre-exposed (after 3-second stimulus of odourant 10^-1, 0.3% CO2): significantly lower
time until responsiveness to CO2 restored to half-maximal levels (after 3-second stimulus of odourant 10^-1, 0.5-second 0.3% CO2 every 30 seconds): ~3 min
inhibition of CO2 response across tested CO2 concentrations (odourant 10^-1): complete inhibition
silencing of CO2-responsive neurons (odourant at concentrations >10^-2, 0.3% CO2): silences CO2-responsive neurons completely

CCCCCCO [1-hexanol]
effect of order of presentation on strength of CO2 response inhibition (0.3% CO2): greater if it is presented subsequent to the CO2 stimulus
inhibition of CO2 response of ab1C neurons: inhibited CO2 response in a dose-dependent manner
silencing of CO2 neuron beyond the period of application: not observed
inhibition of CO2 response across tested CO2 concentrations (odourant 10^-1): significant reduction
CO2 concentration at which complete inhibition occurs (odourant 10^-1, lowest concentration tested): 0.1 % CO2
